According to patent publication US4371537A, “Sulfur-substituted phenoxypyridines having antiviral activity” (The Dow Chemical Company, priority 1981, dated 1983):
Converted amounts (≈) assume the structure as drawn.

Assays:
[1] = test system: rhinovirus type 1A (RV-1A); test: Tissue culture testing, rhinovirus type 1A in HeLa cells; format: cell-based; conditions: 48 and 72 hours, NA = not active at the standard test conditions; for EC50: Enterovirus, read-out: RV-1A: lowest concentration of the compound necessary to cause a 50 percent reduction in cytopathic effect
Procedure: (§1) Monolayered HeLa cells in 16 millimeter (mm) tissue culture dishes were treated with 1 ml of culture medium (Eagles medium supplemented with fetal calf serum) containing subject compound at an appropriate concentration or containing no compound at all. Culture media such as those described herein are more fully described in standard texts, as for example, Kuchler's Biochemical Methods in Cell Culture and Virology, Dowden, Hutchinson and Ross, Inc., Stroudsberg, PA (1977). Following treatment, cells were challenged with 0.05 ml of rhinovirus type 1A (RV-1A), rhinovirus type 2 (RV-2) or Coxsackie A21 virus (Cox A21) in culture medium. Some of the compounds were also tested against rhinovirus type 5 (RV-5), rhinovirus type 8 (RV-8) or rhinovirus type 64 (RV-64). Cell controls received no viruses.
(§2) ^2 Lowest concentration of the compound (μg/ml) necessary to cause

[2] = Cytotoxicity in tissue culture testing (HeLa monolayers); format: cell-based; conditions: human; HeLa cells; observed at 48 and 72 hours post-treatment; read-out: Cytotoxicity: concentration of the compound found to be toxic to the cell
Procedure: as §1
^1 Cytotoxicity figures represent the concentration of the compound, […]

[3] = test system: Coxsackie A21 virus (Cox A21); test: Tissue culture testing, Coxsackie A21 virus in HeLa cells; format: cell-based; conditions: 48 and 72 hours, NA = not active at the standard test conditions; for EC50: read-out: Cox A21: lowest concentration of the compound necessary to cause a 50 percent reduction in cytopathic effect
Procedure: as §1, §2

rhinovirus type 2 (RV-2) = test: Tissue culture testing, rhinovirus type 2 in HeLa cells; format: cell-based; conditions: 48 and 72 hours, NA = not active at the standard test conditions; for EC50: Enterovirus, read-out: RV-2: lowest concentration of the compound necessary to cause a 50 percent reduction in cytopathic effect
Procedure: as §1, §2

Coxsackie A21 virus = test: Continuous Oral Feeding test in mice challenged IP with Coxsackie A21 virus; format: in vivo; conditions: for Continuous Oral Feeding X^2 (chi-square, deaths vs control): 0.06 % in diet, 240 h
Procedure: Some of the compounds were also tested in animals utilizing the following procedure, hereainafter referred to as the "Continuous Oral Feeding" test. Coxsackie A21 virus grown on HeLa cells was administered at a concentration that produces 80 to 100% deaths in mice weighing 8 to 12 grams within 10 days, when the mice are injected (IP) with 0.2 ml of virus preparation. Mice were placed on diets containing test compound dispersed in plain commercially available rodent mash chow at a concentration of 0.06% (weight percent) on day 0. On day 1 the mice were challenged with the virus preparation, 0.2 ml/mouse, (IP). Deaths in both control and experimental groups were recorded for the 10 days and the results analyzed by a chi-square (.chi.^2) test. Chi-square values greater than 3.84 indicate the compound is active (95% confidence level).

Cox A21 = test: Single Oral Dose test in mice challenged IP with Cox A21; format: in vivo, Swiss male mice; conditions: 600 mg/kg P.O. 3 h after IP challenge; >3.84 significant (95% confidence level)
Procedure: In addition, some of the compounds were tested in animals utilizing the following procedure, hereinafter referred to as the "Single Oral Dose" test. Swiss male mice, 8-12 grams in weight were challenged intraperitoneally (IP) with 0.2 ml of a normally lethal dose, i.e., a virus dose sufficient to cause […].80-100% mortality in infected animals within 10 days of challenge of Cox A21, in phosphate buffered saline containing 1% heat inactivated fetal calf serum. Three hours later mice were treated orally (P.O.) with 0.2 ml of compound suspended in 0.5% hydroxypropyl methylcellulose (Methocel) or with 0.2 ml of 0.5% Methocel containing no compound. […] Mice were observed daily for 7-10 days post-challenge and deaths recorded. A modified Mantel-Haenzel combined chi-square procedure was used to determine significant difference between virus control and treated groups. Chi-square values greater than 3.84 are considered significant (95% confidence level) in this test.

| EC50 [1] [µg/mL] | EC50 [3] [µg/mL] | EC50 (rhinovirus type 2 (RV-2)) [µg/mL] | SMILES | MCC [2] [µg/mL] | Continuous Oral Feeding X^2 (chi-square, deaths vs control) (Coxsackie A21 virus) | Continuous Oral Feeding: toxicity of the test compound at the indicated dosage (Coxsackie A21 virus; 0.06% in diet, "toxic" = significantly toxic at the indicated dosage) | Single Oral Dose X^2 (chi-square, deaths vs virus control) (Cox A21) | RV-1A: lowest concentration of the compound necessary to cause a 50 percent reduction in cytopathic effect [1] | Cox A21: lowest concentration of the compound necessary to cause a 50 percent reduction in cytopathic effect [3] | RV-2: lowest concentration of the compound necessary to cause a 50 percent reduction in cytopathic effect (rhinovirus type 2 (RV-2)) |
| --- | --- | --- | --- | --- | --- | --- | --- | --- | --- | --- |
| 12.5 (≈ 39.3 µM) | 12.5 (≈ 39.3 µM) | 12.5 (≈ 39.3 µM) | CS(=O)(=O)c1cc(Oc2ccc(Cl)c(Cl)c2)ccn1 [Example 66, 4-(3,4-dichlorophenoxy)-2-(methylsulfonyl)pyridine] | 25 | – | – | – | – | – | – |
| 12.5 (≈ 32.2 µM) | – | 12.5 (≈ 32.2 µM) | CCCCCCS(=O)(=O)c1ccc(Oc2ccc(Cl)c(Cl)c2)nc1 [Example 54, 2-(3,4-dichlorophenoxy)-5-(n-hexylsulfonyl)pyridine] | > 50 | 0.162 | – | – | – | – | – |
| < 3.12 | 6.25 (≈ 17 µM) | 3.12 (≈ 8.52 µM) | CCS(=O)(=O)c1ccc(Oc2cc(Cl)c(Cl)cc2Cl)nc1 [Example 48, 5-(ethylsulfonyl)-2-(2,4,5-trichlorophenoxy)pyridine] | > 50 | – | – | – | – | – | – |
| 25 (≈ 78.6 µM) | < 3.12 | 25 (≈ 78.6 µM) | CS(=O)(=O)c1ccnc(Oc2ccc(Cl)c(Cl)c2)c1 [Example 65, 2-(3,4-dichlorophenoxy)-4-(methylsulfonyl)pyridine] | 50 | – | – | – | – | – | – |
| 6.25 (≈ 21.8 µM) | 3.12 (≈ 10.9 µM) | 6.25 (≈ 21.8 µM) | CSc1cncc(Oc2ccc(Cl)c(Cl)c2)c1 [Example 75, 3-(3,4-dichlorophenoxy)-5-(methylthio)pyridine] | 6.25 | – | – | – | – | – | – |
| 25 (≈ 76.2 µM) | – | 25 (≈ 76.2 µM) | CS(=O)(=O)c1cccc(Oc2ccc(Br)cc2)n1 [Example 70, 2-(4-bromophenoxy)-6-(methylsulfonyl)pyridine] | 25 | 0.035 | – | – | – | – | – |
| – | – | 12.5 (≈ 40.9 µM) | CC(C)(C)c1ccc(Oc2ccc(S(C)(=O)=O)cn2)cc1 [Example 33, 2-(4-(1,1-dimethylethyl)phenoxy)-5-(methylsulfonyl)pyridine] | > 100 | 4.042 | – | – | – | – | – |

Second part, the compound before the results:

| SMILES | EC50 [1] [µg/mL] | EC50 [3] [µg/mL] | EC50 (rhinovirus type 2 (RV-2)) [µg/mL] | MCC [2] [µg/mL] | Continuous Oral Feeding X^2 (chi-square, deaths vs control) (Coxsackie A21 virus) | Continuous Oral Feeding: toxicity of the test compound at the indicated dosage (Coxsackie A21 virus; 0.06% in diet, "toxic" = significantly toxic at the indicated dosage) | Single Oral Dose X^2 (chi-square, deaths vs virus control) (Cox A21) | RV-1A: lowest concentration of the compound necessary to cause a 50 percent reduction in cytopathic effect [1] | Cox A21: lowest concentration of the compound necessary to cause a 50 percent reduction in cytopathic effect [3] | RV-2: lowest concentration of the compound necessary to cause a 50 percent reduction in cytopathic effect (rhinovirus type 2 (RV-2)) |
| --- | --- | --- | --- | --- | --- | --- | --- | --- | --- | --- |
| CS(=O)(=O)c1ccc(Oc2ccc(Oc3ccccc3)cc2)nc1 [Example 28, 5-(methylsulfonyl)-2-(4-phenoxyphenoxy)pyridine] | – | 50 (≈ 146 µM) | 25 (≈ 73.2 µM) | > 100 | 6.249 | toxic | – | – | – | – |
| CSc1ccc(Oc2ccc(Cl)c(Cl)c2)nc1 [Example 38, 2-(3,4-dichlorophenoxy)-5-(methylthio)pyridine] | 1.25 (≈ 4.37 µM) | 2.5 (≈ 8.74 µM) | 2.5 (≈ 8.74 µM) | 25 | – | – | 25.233 | – | – | – |
| O=C(c1ccccc1)c1ccc(Oc2ccc(S(=O)(=O)C3CCCCC3)cn2)cc1 [Example 59, (4-((5-(cyclohexylsulfonyl)-2-pyridinyl)oxy)phenyl)phenylmethanone] | 3.12 (≈ 7.41 µM) | < 3.12 | 12.5 (≈ 29.7 µM) | 12.5 | – | – | – | – | – | – |
| CS(=O)(=O)c1cccnc1Oc1ccc(C(=O)c2ccccc2)cc1 [Example 72, (4-((3-(methylsulfonyl)-2-pyridinyl)oxy)phenyl)phenylmethanone] | 25 (≈ 70.7 µM) | 12.5 (≈ 35.4 µM) | 25 (≈ 70.7 µM) | 25 | – | – | – | – | – | – |
| CSc1ccc(Oc2ccc(S(C)(=O)=O)cn2)cc1 [Example 37, 2-(4-(methylthio)phenoxy)-5-(methylsulfonyl)pyridine] | < 3 | 3 (≈ 10.2 µM) | < 2 | > 50 | – | – | – | – | – | – |
| CC(=O)c1ccc(Oc2cccc(S(C)(=O)=O)n2)cc1 [1-(4-((6-(methylsulfonyl)-2-pyridinyl)oxy)phenyl)ethanone] | – | – | – | – | – | – | – | not active | not active | not active |
